From article PMC3069040, “A Conserved Cysteine Motif Is Critical for Rice Ceramide Kinase Activity and Function” (PLoS ONE, 2011) come the findings set out here.

The target of one data set is T1, rACD5 (Arabidopsis thaliana, UniProt Q6USK2).
T1 construct: gene CERK; coding region in pET28b, His-tagged, E. coli BL21 (DE3), Ni-NTA; N-terminus from primer MEEGRDDE
T1 sequence (Q6USK2 1-608): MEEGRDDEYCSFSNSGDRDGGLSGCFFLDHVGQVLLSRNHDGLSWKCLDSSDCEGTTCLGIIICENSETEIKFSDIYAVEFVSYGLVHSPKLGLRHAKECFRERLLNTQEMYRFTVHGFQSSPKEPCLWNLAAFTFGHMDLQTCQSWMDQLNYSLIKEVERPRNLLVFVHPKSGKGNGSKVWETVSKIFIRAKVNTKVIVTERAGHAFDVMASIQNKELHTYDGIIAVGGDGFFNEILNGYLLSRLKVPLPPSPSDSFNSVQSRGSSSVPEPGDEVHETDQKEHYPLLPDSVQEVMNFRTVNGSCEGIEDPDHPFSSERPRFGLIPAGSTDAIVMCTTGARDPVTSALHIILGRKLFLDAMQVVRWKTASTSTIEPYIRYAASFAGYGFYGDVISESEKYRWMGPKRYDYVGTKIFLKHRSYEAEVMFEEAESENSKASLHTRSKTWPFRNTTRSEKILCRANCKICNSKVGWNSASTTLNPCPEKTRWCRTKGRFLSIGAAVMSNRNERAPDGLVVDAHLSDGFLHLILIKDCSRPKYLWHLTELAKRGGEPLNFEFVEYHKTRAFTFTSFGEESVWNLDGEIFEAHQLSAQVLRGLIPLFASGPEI
Briefly: TLC with NBD fluorescence scan, turnover. The note with it: ATP 1 mM, 15 mM MgCl2, mixed micelles, 40 °C, 30 min; labelled compound. The class given is biochemical.

A further data set has as its target T2, OsCERK (Oryza sativa, UniProt C0LT23).
T2 construct: gene CERK; N-terminus from primer MEGGGEAL
T2 sequence (C0LT23 1-607): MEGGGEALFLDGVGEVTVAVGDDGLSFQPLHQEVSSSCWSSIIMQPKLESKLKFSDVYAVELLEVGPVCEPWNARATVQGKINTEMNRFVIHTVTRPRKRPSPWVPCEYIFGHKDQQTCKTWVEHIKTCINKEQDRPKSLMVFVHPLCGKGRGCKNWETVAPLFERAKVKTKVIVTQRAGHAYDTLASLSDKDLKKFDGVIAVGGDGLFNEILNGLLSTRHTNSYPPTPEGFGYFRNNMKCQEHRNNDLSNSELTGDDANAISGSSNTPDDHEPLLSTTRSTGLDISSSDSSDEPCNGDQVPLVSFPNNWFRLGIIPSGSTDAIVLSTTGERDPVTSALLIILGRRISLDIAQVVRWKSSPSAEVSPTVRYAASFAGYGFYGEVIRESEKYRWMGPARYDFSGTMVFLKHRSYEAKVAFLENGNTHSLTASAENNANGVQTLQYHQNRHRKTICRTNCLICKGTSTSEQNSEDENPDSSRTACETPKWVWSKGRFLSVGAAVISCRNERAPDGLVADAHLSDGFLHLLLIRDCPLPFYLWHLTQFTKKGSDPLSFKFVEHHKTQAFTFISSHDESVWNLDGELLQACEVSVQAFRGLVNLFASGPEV
Nature of the data set: TLC with NBD fluorescence scan, inhibition of C6-NBD-ceramide phosphorylation. The class given is biochemical.

Substrate in data set [1]: CCCCCCCCCCCCC/C=C/[C@@H](O)[C@H](CO)NC(=O)CCCCCNc1ccc([N+](=O)[O-])c2nonc12
Nature of the data set: TLC with NBD fluorescence scan, Lineweaver-Burk. The note with it: ATP 1 mM, 15 mM MgCl2, Triton X-100/cardiolipin mixed micelles, Hepes pH 7.4, 40 °C, labelled compound. The format is biochemical, Oryza sativa.

Substrate in data set [2]: Nc1ncnc2c1ncn2[C@@H]1O[C@H](COP(=O)(O)OP(=O)(O)OP(=O)(O)O)[C@@H](O)[C@H]1O
Nature of the data set: TLC with NBD fluorescence scan, Lineweaver-Burk. The class given is biochemical, Oryza sativa. The note with it: co-substrate C6-NBD-ceramide, 15 mM MgCl2, mixed micelles, Hepes pH 7.4, 40 °C, Discussion b40 prints 36.35 µM.

Consider `CCCCCCCCCCCCC/C=C/[C@@H](O)[C@H](CO)NC(=O)CCCCCNc1ccc([N+](=O)[O-])c2nonc12` [D-erythro-C6-NBD-ceramide], for which the “TLC with NBD fluorescence scan, turnover” value on rACD5 is “phosphorylating C6-NBD-ceramide to give C6-NBD-ceramide-1-phosphate, as did recombinant OsCERK and rACD5”.

Broadly, the inhibition is how much of the control response was suppressed. A low value points to a weak effect. `CCCCCCCCCCCCC/C=C/[C@@H](O)[C@H](CO)N(C)C` [N,N-dimethylsphingosine]: the inhibition at 100 µM against OsCERK was around 70%.

What is called % inhibition is the drop in the measured response relative to a control, in per cent. Lower therefore signals a weak effect. With `O=C(Nc1nc2ccc(NC(=O)C34CC5CC(CC(C5)C3)C4)cc2s1)c1ccccc1` [ceramide kinase inhibitor K1], the “% inhibition at 200 μM” value on OsCERK (C6-NBD-ceramide, ATP, 15 mM MgCl2, mixed micelles, 40 °C, 0.5% ethanol or methanol as solvent) is above 90%.

B1: OsCERK (Oryza sativa Japonica Group) (protein)
chain: MEGGGEALFLDGVGEVTVAVGDDGLSFQPLHQEVSSSCWSSIIMQPKLESKLKFSDVYAVELLEVGPVCEPWNARATVQGKINTEMNRFVIHTVTRPRKRPSPWVPCEYIFGHKDQQTCKTWVEHIKTCINKEQDRPKSLMVFVHPLCGKGRGCKNWETVAPLFERAKVKTKVIVTQRAGHAYDTLASLSDKDLKKFDGVIAVGGDGLFNEILNGLLSTRHTNSYPPTPEGFGYFRNNMKCQEHRNNDLSNSELTGDDANAISGSSNTPDDHEPLLSTTRSTGLDISSSDSSDEPCNGDQVPLVSFPNNWFRLGIIPSGSTDAIVLSTTGERDPVTSALLIILGRRISLDIAQVVRWKSSPSAEVSPTVRYAASFAGYGFYGEVIRESEKYRWMGPARYDFSGTMVFLKHRSYEAKVAFLENGNTHSLTASAENNANGVQTLQYHQNRHRKTICRTNCLICKGTSTSEQNSEDENPDSSRTACETPKWVWSKGRFLSVGAAVISCRNERAPDGLVADAHLSDGFLHLLLIRDCPLPFYLWHLTQFTKKGSDPLSFKFVEHHKTQAFTFISSHDESVWNLDGELLQACEVSVQAFRGLVNLFASGPEV
notes: N-terminus from primer MEGGGEAL
A word on the Km: it is the concentration of substrate that gives half-maximal velocity. Consider B1, for which the Km in data set [1] is recorded as 4.1 µM; in data set [2] it was 35.36 µM.
